Data set [1] concerns GIST48 cells. Put plainly: Cell proliferation assay (methylene blue), GIST48. It counts as cell-based. To be noted: Homo sapiens, GIST48, 120 h. Here is the method: (§1) GIST882, GIST48 and GIST430 cells were all cultured in incubators maintained at 37° C. and 5% CO2. GIST882 was cultured in RPMI-1640 supplemented with 20% fetal bovine serum (FBS). GIST48 was cultured with F10 supplemented with 20% FBS, 0.5% Mito, serum extender (BD Bioscience, 355006) and 1% pituitary extract bovine (BD Bioscience 354123). GIST430 was cultured in IMDM supplemented with 20% FBS. GIST882, GIST430 and GIST48 cells were provided by Dr. Jonathan A. Fletcher (Harvard Medical School, US).
(§2) GIST cells (4×10^4) were treated with different dosage of compounds. The treated GIST882 cells were incubated for 144 h and GIST48 and GIST430 cells were incubated for 120 h at 37° C. in 5% CO2. Cell proliferation was determined by incubating the cells with methylene blue (Clontech, CA, US) for 1 hour. The absorbance was measured at 450 nm using SpectraMax M5 microplate reader (Molecular Devices, US).

In data set [2] the test system is GIST-T1 cells. Put plainly: MTS cell viability assay, GIST-T1. It counts as cell-based. To be noted: Homo sapiens, GISTT1, 72 h. An excerpt: (§3) MV4:11, BaF3 and HEK293T cell lines were obtained from American Type Culture Collection (ATCC, Manassas, Va., USA). MOLM-13 cell line was purchased from the Deutsche Sammlung von Microorganismen and Zellkulturen GmbH (DSMZ, Braunschweig, Germany). The GIST-T1 cell line was obtained from COSMO BIO CO., LTD (Tokyo, Japan). The GIST-T1, MOLM-13, MV4:11, BaF3, BaF3/FLT3-D835Y, BaF3/FLT3-ITD-F691L and BaF3/FLT3-ITD-D835Y cells were maintained in RPMI 1640 medium supplemented with 10% fetal bovine serum (FBS), 10 U/mL penicillin, and 100 μg/mL streptomycin at 37° C. and 5% CO2. The kasumin-1 cells were cultured in RPMI 1640 medium supplemented with 20% fetal bovine serum (FBS), 1 mM Hepes, 1 mM sodium pyruvate, 10 U/ml penicillin, and 100 μg/ml streptomycin. The HEK293T and FLT3-transfected HEK293T cells were cultured in DMEM (Invitrogen, USA) medium with 10% FBS fetal bovine serum. […]
(§4) Cell viability assay was performed by seeding 1×10^4 cells (MOLM-13, MV4:11, BaF3, BaF3/FLT3-D835Y, BaF3/FLT3-ITD-D835Y and BaF3/FLT3-ITD-F691L) per well in a 96-well culture plate. […] The viable cells were quantitated using the CellTiter 96 AQueous MTS method (Promega, Madison, Wis., USA) according to the manufacturer's recommended protocol. The results were determined by measuring the absorbance at 490 nm using a plate reader (Victor2; PerkinElmer, Shelton, Conn., USA). […]
For orientation: Tetrazolium dyes change colour on reduction, which living cells bring about.

The subject of data set [3] is MOLM-13 cells. Put plainly: MTS cell viability assay, MOLM-13. It counts as cell-based. Particulars: Homo sapiens, MOLM-13, 72 h.
Text: as §3, §4

The subject of data set [4] is Kasumi-1 xenografts. In words: In vivo efficacy study on Kasumi-1 xenografts. The arrangement: species or system SCID male mice. To be noted: days 1-5 and 8-12; for Day 18 Tumor Size: control 880.
In data set [5] the test system is BaF3/FLT3-ITD-F691L cells. Put plainly: MTS cell viability assay, BaF3/FLT3-ITD-F691L. It counts as cell-based, murine. To be noted: Mus musculus, 72 h.
Text: as §3, §4

In data set [6] the test system is BaF3 cells (IL3 dependent pro-B cell line). Put plainly: MTS cell viability assay, BaF3 + IL3. It counts as cell-based, murine. To be noted: Mus musculus; BaF3 + IL3, 72 h.
Text: as §3, §4

The target in data set [7] is T1, GST-FLT3-KD WT (FLT3 kinase catalytic domain) (Homo sapiens, UniProt P36888).
T1 construct: containing the FLT3 kinase catalytic domain (residues Y567-5993); GST; made in house; host or cells: Sf9 insect cells (baculovirus, pBac-PAK8-GST-FLT3-KD plasmid)
T1 sequence (P36888 567-993 limits assumed): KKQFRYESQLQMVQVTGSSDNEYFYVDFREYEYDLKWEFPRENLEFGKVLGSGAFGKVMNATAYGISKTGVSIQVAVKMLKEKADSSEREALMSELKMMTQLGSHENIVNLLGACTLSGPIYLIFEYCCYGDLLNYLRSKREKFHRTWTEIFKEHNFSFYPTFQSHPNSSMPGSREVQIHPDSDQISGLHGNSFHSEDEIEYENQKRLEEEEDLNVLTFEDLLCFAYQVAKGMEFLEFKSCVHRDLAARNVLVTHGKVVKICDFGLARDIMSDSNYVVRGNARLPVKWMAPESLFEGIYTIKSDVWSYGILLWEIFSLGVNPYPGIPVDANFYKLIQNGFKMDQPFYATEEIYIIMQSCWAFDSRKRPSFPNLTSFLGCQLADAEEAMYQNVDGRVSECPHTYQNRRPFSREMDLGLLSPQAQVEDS
In words: FLT3 WT Kinase-Glo assay. It counts as biochemical. Particulars: 1 μM ATP, 30° C., 4 h; read-out: IC50, inhibiting FLT3 activity. As for the experimental part: A study was carried out as follows to test compound 1 HCl salt prepared according to EXAMPLE 1 in inhibiting FLT3 activity.
GST-FLT3-KD^WT containing the FLT3 kinase catalytic domain (residues Y567-5993) was expressed in Sf9 insect cells transfected the baculovirus containing pBac-PAK8-GST-FLT3-KD plasmid. An FLT3^WT Kinase-Glo assay was carried out in 96-well plates at 30° C. for 4 h to test compound in a final volume of 50 μL including the following components: 75 ng GST-FLT3-KD^WT proteins, 25 mM HEPES, pH 7.4, 4 mM MnCl2, 10 mM MgCl2, 2 mM DTT, 0.02% Triton X-100, 0.1 mg/mL bovine serum albumin, 25 μM Her2 peptide substrate, 0.5 mM Na3VO4, and 1 μM ATP. Following incubation, 50 μL Kinase-Glo Plus Reagent (Promega, Madison, Wis., USA) was added to each well and the mixture was incubated at 25° C. for 20 min. A 70-μL aliquot of each reaction mixture was transferred to a black microtiter plate and the luminescence was measured on Wallac Vector 1420 multilabel counter (PerkinElmer, Shelton, Conn., USA).

Data set [8] addresses T2, human c-KIT (residues T544-V976) (Homo sapiens, UniProt P10721).
T2 construct: human c-KIT (residues T544-V976); His (N); made in house; host or cells: baculovirus-insect cell expression system (printed '519', evidently Sf9)
Put plainly: c-Kit ADP Kinase-Glo assay. To be noted: 20 μM ATP, 30° C., 150 mins; read-out: IC50, inhibiting c-Kit activity. It counts as biochemical. As for the experimental part: A study was carried out as follows to test compound 1 HCl salt prepared according to EXAMPLE 1 in inhibiting c-Kit activity.
The N-terminal His-tagged human c-KIT (residues T544-V976) recombinant proteins, expressed in 519 baculovirus-insect cell expression systems, were purified for c-KIT ADP Kinase-Glo assay. A c-Kit-ADP Kinase-Glo assay was carried out in 96-well plates at 30° C. for 150 mins with a final volume of 10 μL, including 40 mM Tris pH 7.4, 20 mM MgCl2, 2 mM MnCl2, 2 mM DTT, 0.01% BSA, 20 μM ATP, 20 μM poly(Glu,Tyr) 4:1 peptide, 0.1 mM Na3VO4, 250 ng of recombinant c-Kit proteins, and a tested compound at the indicated concentration. The reactions were stopped by the addition of 5 μL ADP-Glo™ Reagent (Promega, Madison, Wis., USA) at 25° C. with 40 min incubation, followed by 10 μL of kinase detection reagent for a further 30 min. Finally, a […] aliquot of each reaction mixture was transferred to a black microtiter plate and the luminescence was measured on Wallac Vector 1420 multilabel counter (Perkin-Elmer, Shelton, Conn., USA).
(Kinase-Glo reads ATP consumption through a luciferase reaction.)

The test system of data set [9] is BaF3/FLT3-D835Y cells. In words: MTS cell viability assay, BaF3/FLT3-D835Y. It counts as cell-based, murine. Particulars: Mus musculus, 72 h.
Text: as §3, §4

For data set [10], the system named is MV4:11 cells. In words: MTS cell viability assay, MV4:11. It counts as cell-based. Particulars: Homo sapiens, MV4-11, 72 h.
Text: as §3, §4

For data set [11], the system named is BaF3/FLT3-ITD-D835Y cells. Put plainly: MTS cell viability assay, BaF3/FLT3-ITD-D835Y. It counts as cell-based, murine. To be noted: Mus musculus, 72 h.
Text: as §3, §4

Data set [12] deals with GIST882 cells. In words: Cell proliferation assay (methylene blue), GIST882. It counts as cell-based. Particulars: Homo sapiens, GIST882, 144 h. Here is the method: as §1, §2
The test system of data set [13] is GIST430 cells. Put plainly: Cell proliferation assay (methylene blue), GIST430. It counts as cell-based. Particulars: Homo sapiens, GIST430, 120 h. As for the experimental part:
as §1, §2

In general, GI50 refers to the concentration giving 50% growth inhibition. Broadly, the pIC50 is the IC50 on a negative log10 scale, so that one unit is a factor of ten.

pIC50: −log10 of the molar value. Structures can show the parent of a compound that is named as a salt.

T2 sequence (P10721 544-976): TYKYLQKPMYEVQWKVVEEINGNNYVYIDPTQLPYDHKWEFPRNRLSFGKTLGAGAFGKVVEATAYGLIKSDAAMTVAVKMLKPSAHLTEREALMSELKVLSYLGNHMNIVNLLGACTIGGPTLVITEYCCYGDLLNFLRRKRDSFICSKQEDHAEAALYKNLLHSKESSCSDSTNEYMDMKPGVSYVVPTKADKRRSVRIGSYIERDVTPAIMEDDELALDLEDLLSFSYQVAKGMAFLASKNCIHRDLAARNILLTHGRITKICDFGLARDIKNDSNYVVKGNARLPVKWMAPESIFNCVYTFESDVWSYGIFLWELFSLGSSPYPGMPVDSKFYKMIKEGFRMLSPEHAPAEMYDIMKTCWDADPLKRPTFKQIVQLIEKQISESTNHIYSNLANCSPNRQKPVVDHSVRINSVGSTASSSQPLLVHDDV

In the case of `Cc1nc(Nc2ncc(-c3ccncc3)s2)cc(N2CCNCC2)n1` [Compound 1 HCl salt, 2-Methyl-6-(piperazin-1-yl)-N-[5-(pyridine-4-yl)-1,3-thiazol-2-yl]pyrimidin-4-amine dihydrochloride], the 50% growth inhibitory concentration (GI50) worked out at 20 nM in [1]; 2.3 nM in [2]; 2.9 nM in data set [3]; 95 nM in data set [5]; 2580 nM in data set [6]; 14 nM in [9]. Also, the GI50 in data set [10] amounted to 1.3 nM; in data set [11], 53 nM; in data set [12], 8 nM; in data set [13], 33 nM. Also, the “Body Weight Loss” value in [4] (10 mg/kg oral) and in [4] (50 mg/kg oral) was “No” each time. Further, the “Mortality (n = 6)” value in data set [4] (10 mg/kg oral) and in [4] (50 mg/kg oral) was 0/6 each time. Moreover, the “Day 18 Tumor Size” value came out at 700 mm^3 in data set [4] (10 mg/kg oral) and 80 mm^3 in data set [4] (50 mg/kg oral). For the same molecule, the pIC50 in data set [7] and in [8] was > 7.00 each time.

These data come from patent US11299489B1, “Thiazole compounds as protein kinase inhibitors” (NATIONAL HEALTH RESEARCH INSTITUTES, priority 2020, dated 2022).
